Results reported in patent publication US4268505A, “Pharmaceutical composition comprising a nitrogen-containing polysaccharide and an antibiotic agent, and a method of treating an infectious disease therewith” (priority 1979, dated 1981).

Assays:
Salmonella enteritidis = assay: Minimum growth inhibiting concentration, agar plate method; type: cell-based; conditions: for Minimum growth inhibiting concentration: strain resistant to the respective drug
Protocol: (§1) The drug-resistant strains of bacterial species were obtained in the manner described below according to the concentration gradient plate culture (see "Chemotherapeutics and Resistant Bacteria", 1970, By Chikara Watanabe, Asakura Shoten).
(§2) The agar plates with drug concentration gradient ranging from 10 to 100 μg/ml were prepared, and each strain of the bacterial species to be tested was streaked or smeared. These plates were kept at 37° C. for several days and the colony formed in the high concentration area was isolated and again similarly inoculated to the plates. Such operation was repeated several times to obtain the bacterial strains resistant to the respective drugs.
(§3) The drug sensitivity of the drug-resistant strains and that of the original strains (sensitive strains) were compared by way of the minimum growth inhibiting concentration (hereinafter abbreviated as MIC) according to the Standard Method of the Japanese Chemotherapeutical Association (see "Chemotherapy" Vol. 22, No. 6, 1126 (1974), by MIC Determination Method Reform Committee). More specifically, double diluted systems of each drug were prepared and they were mixed with the heart-infusion agar medium (Nippon Eiyo Kagaku Co., Ltd.) to form the agar plates. Then a loopful of each strain, which had been cultured at 37° C. in Trypto-soy bouillon (Nippon Eiyo Kagaku Co., Ltd.) for 18 hr. was smeared on each the plate, and after culturing for 18 hr. at 37° C., the growth of the strain on each plate was examined.
(§4) MIC has apparently been reduced to half the level or less before addition of the present substance as will be seen in Table 3 of EXAMPLE 1. The amount of the present substance added is more than 10 μg/ml, preferably more than 100 μg/ml. The pH of the medium was maintained at 7.2±0.1 so that MIC would not be affected by pH of the medium.
(§5) Specimens of the drug-resistant bacterial strain were obtained according to the aforementioned concentration-gradient plate culture by using Staphylococcus aureus, Streptococcus faecalis, Escherichia coli, Salmonella enteritidis, Klebsiella pneumoniae and Pseudomonas aeruginosa. The MICs of the original bacterial strains and those of the bacterial strains which have developed resistance to the respective antibiotics are summarized in Table 2.

Escherichia coli = assay: as above; type: cell-based; conditions: for Minimum growth inhibiting concentration: strain resistant to the respective drug
Protocol: as §1, §2, §3, §4, §5

Klebsiella pneumoniae = assay: as above; type: cell-based; conditions: for Minimum growth inhibiting concentration: strain resistant to the respective drug
Protocol: as §1, §2, §3
(§6) The amount of the present substance added is more than 10 μg/ml, preferably more than 100 μg/ml. The pH of the medium was maintained at 7.2±0.1 so that MIC would not be affected by pH of the medium.
(§7) Specimens of the drug-resistant bacterial strain were obtained according to the aforementioned concentration-gradient plate culture by using Staphylococcus aureus, Streptococcus faecalis, Escherichia coli, Salmonella enteritidis, Klebsiella pneumoniae and Pseudomonas aeruginosa.

Staphylococcus aureus = assay: as above; type: cell-based; conditions: for Minimum growth inhibiting concentration: strain resistant to the respective drug
Protocol: as §1, §2, §3, §6, §7

[1] = test system: chloramphenicol-resistant strain of Salmonella enteritidis; assay: Therapeutical test in mice infected with chloramphenicol-resistant Salmonella enteritidis (Example 6); type: in vivo, male ICR-JCL mouse; conditions: chloramphenicol alone 50 mg/kg i.p., 5 days after administration
Protocol: The following experiment was then carried out on the present substance having the above-mentioned properties.
The chloramphenicol-resistant strain of Salmonella enteritidis were obtained as in Example 1.
A quarter milli-liter of suspension of the aforementioned chloramphenicol-resistant bacterial strain in Tryptosoy-bouillon (see Example 2) including 5% of mucin was intraperitoneally inoculated to each mouse of 5 groups of male ICR-JCL mouse, the group consisting of 10 mice. The inoculum was 1×10^8 cells/mouse. Twenty five hours after the inoculation, 50 mg/kg of chloramphenicol was administered intraperitoneally. 500 mg/kg of the present substance was further given orally to another group. The rate of survival 5 days after the administration was 40% in the group where chloramphenicol alone was administered, while it was 80% in the group where the antibiotic was given in combination with the present substance.

[2] = test system: Streptococcus faecalis resistant to erythromycin; assay: Therapeutical treatment of mice infected with erythromycin-resistant Streptococcus faecalis (Example 9); type: in vivo, male ICR-JCL mice; conditions: only erythromycin 50 mg/kg oral, 7th day
Protocol: Experiments of therapeutical treatment of animals infected with an erythromycin-resistant bacterial strain were carried out using the present substance, i.e., a nitrogen-containing polysaccharide prepared by the procedures described in Example 1.
After keeping the mice under usual conditions for 6 days, the rate of survival of each mouse was observed on 7th day.

Enterobacter aerogenes = assay: Minimum growth inhibiting concentration, agar plate method; type: cell-based; conditions: for Minimum growth inhibiting concentration: strain resistant to the respective drug
[3] = test system: kanamycin-resistant strain of Shigella sonnei; assay: Therapeutical treatment of mice infected with kanamycin-resistant Shigella sonnei (Example 10); type: in vivo, male ICR-JCL mice; conditions: only kanamycin 20 mg/kg i.p., 7th day
Protocol: Similar experiments of therapeutical treatment as in Example 9 was performed by using the present substance obtained by the procedures described in Example 1.
A kanamycin-resistant strain of Shigella sonnei obtained by the procedures described in Example 1 was intraperitoneally inoculated to the two groups (each group comprising 10 animals) of male ICR-JCL mice at a rate of 1×10^8 cells/mouse, and after 2 hours of the inoculation, 20 mg/kg of kanamycin was intraperitoneally administered to the mice of one group, and 100 mg/kg of the present substance and 20 mg/kg of kanamycin were almost simultaneously administered to the mice of another group. After keeping the mice under usual conditions for 6 days. Their rate of survival was observed on 7th day.

Shigella sonnei = assay: Minimum growth inhibiting concentration, agar plate method; type: cell-based; conditions: for Minimum growth inhibiting concentration: strain resistant to the respective drug
[4] = test system: streptomycin resistant strain of Klebsiella pneumoniae; assay: Therapeutical test in mice infected with streptomycin-resistant Klebsiella pneumoniae (Example 7); type: in vivo, male ICR-JCL mouse; conditions: streptomycin singly 100 mg/kg i.p., 6 days after administration
Protocol: The streptomycin resistant strain of Klebsiella pneumoniae was obtained by the procedure of Exampe 1 and 0.25 ml of a Trypto-soy bouillon (see Example 2) containing 5% of mucin and the bacterial strain was intraperitoneally inoculated to each mouse of 2 groups of male ICR-JCL mouse, the group consisting of 10 mice at the rate of 1×10^8 cells per mouse. Three hours after this inoculation, 100 mg/kg of streptomycin was intraperitoneally administered. Another group was further given 120 mg/kg of the present substance, obtained by the description in Example 6, via intraperitoneal administration. The survival rate 6 days after administration was 50% in the group where streptomycin was used singly, but it was as high as 80% in the group where the present substance was used with streptomycin.

Streptococcus faecalis = assay: Minimum growth inhibiting concentration, agar plate method; type: cell-based; conditions: for Minimum growth inhibiting concentration: strain resistant to the respective drug
Protocol: as §1, §2, §3, §4, §5

[5] = test system: colistin-resistant strain of Pseudomonas aeruginosa; assay: Therapeutical test in mice infected with colistin-resistant Pseudomonas aeruginosa (Example 8); type: in vivo, male ICR-JCL mice; conditions: single colistin 190 mg/kg i.p., 6 days after administration
Protocol: A quarter milli-liter of a suspension of the colistin-resistant strain of Pseudomonas aeruginosa cultured by the same procedure in Example 1 in Trypto-soy bouillon (see Example 2) including 5% of mucin was intraperitoneally inoculated to each mouse of 2 groups of male ICR-JCL mice (body weight: 22±1 g, 10 mice a group) at the rate of 1×10^8 cells/mouse. […] The present substance obtained by the same procedure as in Example 6 was also orally administered at a dose of 1,500 mg/kg.

Pseudomonas aeruginosa = assay: Minimum growth inhibiting concentration, agar plate method; type: cell-based; conditions: for Minimum growth inhibiting concentration: strain resistant to the respective drug
Protocol: as §1, §2, §3, §6, §7

[6] = strain resistant to the respective antibiotic (Table 2)
[7] = present substance added at 100 μg/ml
[8] = present substance not added (Table 3)
[9] = present substance added at 1000 μg/ml

| Compound | Minimum growth inhibiting concentration (MIC) (Salmonella enteritidis; original strain) [µg/mL] | Minimum growth inhibiting concentration (MIC) (Salmonella enteritidis; [6]) [µg/mL] | Minimum growth inhibiting concentration (MIC) (Escherichia coli; original strain) [µg/mL] | Minimum growth inhibiting concentration (MIC) (Escherichia coli; [6]) [µg/mL] | Minimum growth inhibiting concentration (Escherichia coli; [8]) [µg/mL] | Minimum growth inhibiting concentration (MIC) (Klebsiella pneumoniae; original strain) [µg/mL] | Minimum growth inhibiting concentration (MIC) (Klebsiella pneumoniae; [6]) [µg/mL] | Minimum growth inhibiting concentration (Klebsiella pneumoniae; [8]) [µg/mL] | Minimum growth inhibiting concentration (MIC) (Staphylococcus aureus; original strain) [µg/mL] | Minimum growth inhibiting concentration (MIC) (Staphylococcus aureus; [6]) [µg/mL] | Minimum growth inhibiting concentration (Staphylococcus aureus; [8]) [µg/mL] | also measured |
| --- | --- | --- | --- | --- | --- | --- | --- | --- | --- | --- | --- | --- |
| O=C(N[C@H](CO)[C@H](O)c1ccc([N+](=O)[O-])cc1)C(Cl)Cl [CP, Chlorampheniocol] | 0.8 | 12.5 | 1.6 | 50 | 50 | 0.8 | 25 | 25 | 3.1 | 25 | 25 | Minimum growth inhibiting concentration (Salmonella enteritidis; [7]): 3.2 µg/mL; Minimum growth inhibiting concentration (Salmonella enteritidis; [8]): 12.5 µg/mL; Minimum growth inhibiting concentration (Escherichia coli; [7]): 12.5 µg/mL; Minimum growth inhibiting concentration (Klebsiella pneumoniae; [7]): 6.3 µg/mL; Minimum growth inhibiting concentration (Staphylococcus aureus; [7]): 6.3 µg/mL; rate of survival [1]: 40% |
| CC[C@H]1OC(=O)[C@H](C)[C@@H](O[C@H]2C[C@@](C)(OC)[C@@H](O)[C@H](C)O2)[C@H](C)[C@@H](O[C@@H]2O[C@H](C)C[C@H](N(C)C)[C@H]2O)[C@](C)(O)C[C@@H](C)C(=O)[C@H](C)[C@@H](O)[C@]1(C)O [EM, Erythromycin] | > 100 |  | > 100 |  |  |  | > 100 |  | 0.4 |  |  | rate of survival [2]: 50%; Minimum growth inhibiting concentration (Staphylococcus aureus; [9]): 3.2 µg/mL |
| NC[C@H]1O[C@H](O[C@H]2[C@H](O)[C@@H](O[C@H]3O[C@H](CO)[C@@H](O)[C@H](N)[C@H]3O)[C@H](N)C[C@@H]2N)[C@H](O)[C@@H](O)[C@@H]1O [KM, Kanamycin] |  |  | 6.3 | 200 | 200 |  |  |  |  |  |  | Minimum growth inhibiting concentration (MIC) (Enterobacter aerogenes; original strain): 3.1 µg/mL; Minimum growth inhibiting concentration (MIC) (Enterobacter aerogenes; [6]): 100 µg/mL; Minimum growth inhibiting concentration (Enterobacter aerogenes; [9]): 12.5 µg/mL; Minimum growth inhibiting concentration (Enterobacter aerogenes; [8]): 100 µg/mL; Minimum growth inhibiting concentration (Escherichia coli; [9]): 50 µg/mL; rate of survival [3]: 30%; Minimum growth inhibiting concentration (MIC) (Shigella sonnei; original strain): 3.1 µg/mL; Minimum growth inhibiting concentration (MIC) (Shigella sonnei; [6]): 50 µg/mL; Minimum growth inhibiting concentration (Shigella sonnei; [9]): 12.5 µg/mL; Minimum growth inhibiting concentration (Shigella sonnei; [8]): 50 µg/mL |
| CC1(C)S[C@@H]2[C@H](NC(=O)Cc3ccccc3)C(=O)N2[C@H]1C(=O)O [PG, Penicillin G] | 6.3 | > 100 | 12.5 | > 100 |  | 6.3 | > 100 |  | 0.025 | 12.5 | 12.5 | Minimum growth inhibiting concentration (Staphylococcus aureus; [9]): 1.6 µg/mL |
| [H]/N=C(/N)N[C@H]1[C@H](O)[C@@H](O)[C@H](O[C@@H]2O[C@@H](C)[C@](O)(C=O)[C@H]2O[C@@H]2O[C@@H](CO)[C@H](O)[C@@H](O)[C@@H]2NC)[C@@H](N/C(N)=N\[H])[C@@H]1O [SM, Streptomycin] | 25 | > 100 | 3.1 | 100 | 100 | 1.6 | 100 | 100 | 1.6 | > 100 |  | survival rate [4]: 50%; Minimum growth inhibiting concentration (Escherichia coli; [9]): 25 µg/mL; Minimum growth inhibiting concentration (Klebsiella pneumoniae; [9]): 25 µg/mL |
| CN(C)[C@@H]1C(O)=C(C(N)=O)C(=O)[C@@]2(O)C(O)=C3C(=O)c4c(O)cccc4[C@@](C)(O)[C@H]3C[C@@H]12 [TC, Tetracycline] | 1.6 | 12.5 | 3.1 | 25 | 25 | 1.6 | 25 | 25 | 0.8 | 25 | 25 | Minimum growth inhibiting concentration (Salmonella enteritidis; [7]): 6.3 µg/mL; Minimum growth inhibiting concentration (Salmonella enteritidis; [8]): 12.5 µg/mL; Minimum growth inhibiting concentration (Escherichia coli; [7]): 6.3 µg/mL; Minimum growth inhibiting concentration (MIC) (Streptococcus faecalis; original strain): 0.4 µg/mL; Minimum growth inhibiting concentration (MIC) (Streptococcus faecalis; [6]): 25 µg/mL; Minimum growth inhibiting concentration (Streptococcus faecalis; [7]): 6.3 µg/mL; Minimum growth inhibiting concentration (Streptococcus faecalis; [8]): 25 µg/mL; Minimum growth inhibiting concentration (Klebsiella pneumoniae; [7]): 12.5 µg/mL; Minimum growth inhibiting concentration (Staphylococcus aureus; [7]): 3.2 µg/mL |
| Colistin [CL] |  |  |  |  |  |  |  |  |  |  |  | rate of survival [5]: 40%; Minimum growth inhibiting concentration (MIC) (Pseudomonas aeruginosa; [6]): 200 µg/mL; Minimum growth inhibiting concentration (Pseudomonas aeruginosa; [9]): 100 µg/mL; Minimum growth inhibiting concentration (Pseudomonas aeruginosa; [8]): 200 µg/mL |
